In US9492424B2, “Muscle atrophy inhibitor” (MORINAGA MILK INDUSTRY CO., LTD., priority 2011, dated 2016):

Experiments:
atrogin-1 gene = assay: expression amount of atrogin-1 gene in tibialis anterior muscle by real time PCR; format: in vivo, rat; conditions: Example 3
From the text: (§1) The tibialis anterior muscles collected in Example 1 mentioned above were used to evaluate expression amounts of genes that participate in muscle atrophy.
(§2) The tibialis anterior muscle was frozen in liquid nitrogen immediately after the collection, and homogenized in Trizol Reagent (Invitrogen), and the total RNA was extracted by using RNeasy Mini Kit (QIAGEN). cDNA was obtained by the total RNA by using High Capacity cDNA Reverse Kit (ABI). The cDNA, primers for amplifying each of the atrogin-1, MuRF1, and myostatin genes (ABI), and Taqman Fast Universal PCR Master Mix (ABI) were mixed, and expression amount of each gene in the test sample was relatively quantified by the real time PCR method, with taking the gene expression amount in the DEX group as 1. In statistical analysis, it was determined whether there were statistically significant differences between the values obtained for the DEX group and the values obtained for the other groups according to the Dunnett test.
(§3) In Examples 1 and 2, 1 mass % of the extract of Citrus depressa was added to the feed, and fed. […]

MuRF1 gene = assay: expression amount of MuRF1 gene in tibialis anterior muscle by real time PCR; format: in vivo, rat; conditions: Example 3
From the text: as §1, §2, §3

Structure (SMILES) | expression amount of the atrogin-1 gene relative to DEX group taken as 1.0 (atrogin-1 gene; eight-month old SD rats, 0.0007 mass % in feed for two weeks, dexamethasone) | ingestion amount with which the effect can be expected (atrogin-1 gene; from feed intake and body weight of the NOB group, 19 days ingestion) | expression amount of the MuRF1 gene relative to DEX group taken as 1.0 (MuRF1 gene; eight-month old SD rats, 0.0004 mass % in feed for two weeks, dexamethasone) | ingestion amount with which the effect can be expected (MuRF1 gene; from feed intake and body weight of the TAN group, 19 days ingestion)
COc1ccc(-c2cc(=O)c3c(OC)c(OC)c(OC)c(OC)c3o2)cc1OC [NOB, nobiletin] | 0.85±0.29 | about 0.2 mg/kg/day |  | 
COc1ccc(-c2cc(=O)c3c(OC)c(OC)c(OC)c(OC)c3o2)cc1 [TAN, tangeretin] |  |  | 0.77±0.35 | about 0.1 mg/kg/day
